In article PMC11472058, “Trinucleotide cap analogs with triphosphate chain modifications: synthesis, properties, and evaluation as mRNA capping reagents” (Nucleic Acids Research, 2024):

How the values were obtained:
BALB/c mice = assay: In vivo translation efficacy of FLuc-encoding mRNA-LNPs (whole body bioluminescence); details: 10 μg mRNA i.v., 4, 8 and 24 h
Protocol: Two reporters were selected to determine in vivo protein production: firefly luciferase (FLuc) and human erythropoietin (hEPO). The mRNA encoding each gene was obtained by IVT using T7 RNA polymerase for co-transcriptional capping with m^7Gppp^5′SAmpG and m^7GpppAmpG as the reference cap structure. 500 μl or 1000 μl of the IVT mix (for obtaining mRNA encoding hEPO or FLuc, respectively) contained following components at indicated final concentration: transcription buffer with 2 mM spermidine and Bis-Tris pH 6.5, 1 U/μl RNase inhibitor (RiboLock, ThermoFisher Scientific), 5 mM ATP, CTP and UTP, 4 mM GTP, 10 mM DTT, 25 mM MgCl2, 0.002 U/μl inorganic pyrophosphatase (ThermoFisher Scientific), 10 mM m^7GpppAmpG or m^7Gppp^5’SAmpG, 40 ng/μl linearized plasmid as the DNA template and 0.125 μg/μl T7 RNA polymerase (in-house prepared). All components were gently mixed by pipetting and incubated for one hour at 37°C. After DNA template removal, obtained mRNA was initially purified using oligo(dT)25 resin, as previously described, and concentrated by ultrafiltration (Amicon Ultra-15 50K or 100K, Millipore) prior loading on preparative column. […] Eluate quality was analyzed on 1 × TBE 1.2% agarose gel, and the fractions containing mRNA of the highest purity were combined, desalted by ultrafiltration (Amicon Ultra-15 50K or 100K, Millipore), and precipitated. […]

Human Dcp2 = target: T1, Human Dcp2 (Homo sapiens, UniProt Q8IU60); assay: RNA decapping assay with recombinant hDcp2; assay type: biochemical; details: fraction of decapped RNA after 30 min of incubation with hDcp2, 27-nt RNA capped with the analog, 37 °C; triplicates ± SD
T1 construct: made in house; host or cells: E. coli
Protocol: Human Dcp2 was expressed in E. coli and purified as described previously ([52]). Short 27 nt-capped RNAs (24.2 ng) were diluted with decapping buffer (50 mM Tris–HCl pH 8.0, 50 mM NH4Cl, 0.01% NP-40, 1 mM DTT, 5 mM MgCl2 and 2 mM MnCl2; 2.9 μl of freshly prepared 10 × Buffer) and the final volume was adjusted to 29 μl with ultrapure RNase free water. 4.2 ng (5 μl) of the solution was taken out as time zero reference and diluted with 5 μl loading dye (5 M urea, 44% formamide, 20 mM EDTA, 0.03% bromophenol blue, 0.03% xylene cyanol). The remaining RNAs (20 ng/24 μl) were subjected to 10 nM hDcp2 (250 nM, 1 μl) and the mixtures were incubated at 37°C for 1 h. At defined time points (5, 15, 30 and 60 min), 4 ng of RNA (5 μl) were taken out and the reactions were quenched by adding an equal volume of loading dye. RNAs were resolved electrophoretically on denaturing 15% acrylamide:bisacrylamide 19:1/7 M urea/1 × TBE gel, stained with SYBR Gold (Invitrogen) and visualized using a Typhoon FLA 9500 (GE Healthcare). The decapping progress was determined for each time point by densitometry analysis of the gels, as a ratio between the intensity of the band corresponding to capped RNA and the sum of the intensity of bands from capped and uncapped RNAs. The percentages of remaining capped RNA were then plotted as a function of time.
The RNAs used to determine the capping efficiencies were also useful to study the susceptibility of capped RNA to decapping by hDcp2, the catalytic subunit of the major human mRNA decapping complex Dcp1/Dcp2, which releases m^7GDP and 5′-monophosphorylated RNA (in this case the 26-nt pApG-RNA24; Figure 4C). The progress of decapping at different time points (5, 15, 30 and 60 min) was monitored by HR-PAGE followed by densitometric analysis of the gels (Figure 4C, triplicates of gels are shown in Supplementary Figure S2), and the fraction of remaining capped RNA (27-nt) was plotted as a function of time (Figure 4D-G). […] For better visualization, the data of modified capped RNAs were grouped according to the type of modification present at the 5′ end and presented in separate graphs (Figure 4E–G). To quantify the relative susceptibility to hDcp2, we compared the decapping levels at the 30 min time point (Table 1). For RNAs capped with β-S-triphosphate analogs (1–6, Figure 4E, Table 1), we observed a significant difference in susceptibility to hDcp2 between RP and SP isomers, independent of the methylation pattern.

CO[C@@H]1[C@H](OP(=O)(O)OC[C@H]2O[C@@H](n3cnc4c(=O)[nH]c(N)nc43)[C@H](O)[C@@H]2O)[C@@H](CSP(=O)([O-])OP(=O)(O)OP(=O)(O)OC[C@H]2O[C@@H](n3c[n+](C)c4c(O)nc(N)nc43)[C@H](O)[C@@H]2O)O[C@H]1n1cnc2c(N)ncnc21 [Compound 8, m^7Gppp^5’SAmpG]
FLuc protein expression (whole body bioluminescence) versus m^7GpppAmpG-capped mRNA (in words) (BALB/c mice; GeneVoy LNP): the effect was the opposite
FLuc protein expression (whole body bioluminescence) versus m^7GpppAmpG-capped mRNA (in words) (BALB/c mice; SM-102 LNP): no significant differences
Susceptibility to hDcp2 (@30 min) (Human Dcp2): 0.64 ± 0.11
